Reference: patent publication US20070202188A1, “Use of alkene carboxlic acid n alkylamides as flavouring agents” (priority 2003, published 2007)

Tests used:
group of 6-8 testers = test: Sensorial evaluation (tasting of sugar solution by a group of testers); format: in vivo; conditions: approx. 5 ml swallowed
Description: The substance to be tasted (see below) was dissolved in ethanol and the ethanolic solution was then diluted with 11% strength sugar solution (final concentration: c). For tasting, in each case approx. 5 ml of the sugar solution was swallowed. If the threshold value of the substance was known, a value just above the threshold value was chosen for the tasting. A group of 6-8 testers tasted the solutions.

oral cavity = conditions: in vivo; cited from earlier work
[1] = cited from earlier work
mouse = mouse oral; cited from earlier work
mouth = conditions: in vivo; cited from earlier work
[2] = c=10 ppm in 11% strength sugar solution

## 2E-decenoic acid N-(2-methylbutyl)amide [Example 2]
Group of 6-8 testers; [2]
  sensorial profile: slightly piquant, saliva-promoting, tingling, mild heat sensation

## 2E-tetradecenoic acid N-isobutylamide
Oral cavity
  sensorial effect described in the literature: no piquant taste was found

## 3E-nonenoic acid N-isobutylamide [Example 3]
Group of 6-8 testers; [2]
  sensorial profile: anaesthetizing, piquant taste builds up, impression of sweet palmond, slightly bitter

## CCCCC/C=C/C=C/C(=O)NCC(C)C [2E,4E-decadienoic acid N-isobutylamide]
Oral cavity
  sensorial effect described in the literature: chiefly shows an anaesthetizing effect
Group of 6-8 testers; [2]
  sensorial profile: saliva-promoting, fatty, fruity, slightly tingling, slightly piquant

## CCCCCC/C=C/CC(=O)NCC(C)C [Example 4, 3E-decenoic acid N-isobutylamide]
Group of 6-8 testers; [2]
  sensorial profile: tickling piquant taste, builds up slowly in the pharynx, slightly bitter

## COc1cc(CNC(=O)CCCC/C=C/C(C)C)ccc1O [capsaicin, N-(4-hydroxy-3-methoxybenzyl)-8-methyl-(6E)-nonenoic acid amid]
[1]
  damage with frequent use and overdose: chronic gastritis and kidney and liver damage
mouse
  LD50: 47 mg

## COc1cc(CNC(=O)CCCCCCC(C)C)ccc1O [dihydrocapsaicin]
Group of 6-8 testers; c=100 ppb in 11% strength sugar solution
  sensorial profile: action starts with a slight delay in the pharyngeal cavity, aggressive, burning piquant taste (chilli, slight evolution of heat)

## O=C(/C=C/C=C/c1ccc2c(c1)OCO2)N1CCCCC1 [piperine, 1-piperoylpiperidine]
mouth
  intrinsic taste: intensive intrinsic taste reminiscent of pepper
  relative piquant taste compared with capsaicin: approx. 1%
